Assay results taken from paper PMC9595134, “Novel pituitary actions of GnRH in teleost: The link between reproduction and feeding regulation” (Frontiers in Endocrinology, 2022).
Where a SMILES comes first, the peptide text is derived from it. [ ]: non-standard residue; d: D form. pGlu = O=C1CC[C@@H](C(=O)O)N1

What was measured:
[1] = test system: grass carp pituitary cells; assay: qRT-PCR of reproductive hormone genes in pituitary cells; type: cell-based, grass carp (Ctenopharyngodon idellus)
Description: (§1) The preparation of grass carp pituitary cells was performed as mentioned above. After drug treatment, the total RNA of these cells was isolated by TRIzol reagent and reverse transcribed into cDNA with Hifair™ III 1st Strand cDNA Synthesis Kit. The transcript levels of several anorectic peptides (POMCb, CART2, UTS1, NMBa, NMBb, and Lepr) and reproductive genes (GtHα, LHβ, FSHβ, INHBa, SgII, DRD2) were detected by using an ABI 7500 quantitative real-time PCR (qRT-PCR) system (Biosystems, USA) (information of primers for target genes is listed in Supplementary Table S3 ). In this process, a serial gradient dilution of plasmid DNA of these genes was used as a standard for data calibration. The conditions of qRT-PCR were set to 10 min, 95°C, for pre-degeneration; 15 s, 95°C, for degeneration; 30 s, 55°C–60°C, for annealing; 30 s, 72°C, for extending; and 20 s, 82°C, for signal detection with 40 cycles. Finally, the melt curve obtained through each test was used to verify and check the reliability and specificity of the corresponding qRT-PCR.
(§2) The transcript level was detected using qRT-PCR by ABI 7500 software, while the data calibration of each reaction was performed through standard curves with the dynamic range of 10^5 and correlation coefficient >0.95. The transcript level of β-actin was used as an internal control, and target gene mRNA expression was normalized and calculated as a percentage of the mean value (as “% Ctrl”). Based on merging four to eight replicates (as mean ± SEM), the data were analyzed with a one-way ANOVA to differentiate the significant differences from other treatment experiments. The SPSS Statistics 26.0 software was used to do a Dunnett’s post-hoc test. […] The different letters represent a significant difference at p < 0.05 between groups.
To further verify the reproductive function of GnRHs, time- and dose-dependent tests were performed to detect GnRH2- or GnRH3-regulated GtHα, LHβ, FSHβ, INHBa, SgII, and DRD2 mRNA expression in grass carp pituitary cells. […] In the dose-dependent test, a continuous gradient dilution of GnRH2 (0.1–1,000 nM) or GnRH3 (0.1–1,000 nM) was incubated with grass carp pituitary cells for 24 h.
Figure 5 Regulation of reproductive hormone gene mRNA expression by GnRH2 and GnRH3 in grass carp pituitary cells. (A) Time-course experiment of grass carp GnRH2 (1 μM) and GnRH3 (1 μM) on GtHα, LHβ, FSHβ, INHBa, SgII, and DRD2 mRNA expression in grass carp pituitary cells. (B) Dose dependence of a 24-h treatment with increasing levels of GnRH2 and GnRH3 (0.1–1,000 nM) on GtHα, LHβ, FSHβ, INHBa, SgII, and DRD2 mRNA expression in grass carp pituitary cells. After drug treatment, the pituitary cells were extracted to total RNA, reversed transcribed, and used for RT-PCR to detect the target genes’ mRNA expression. […] The different letters represent a significant difference at p < 0.05 between groups (ANOVA followed by a Dunnett test).

[2] = test system: grass carp pituitary cells; assay: qRT-PCR of anorectic genes in pituitary cells; type: cell-based, grass carp (Ctenopharyngodon idellus)
Description: as §1, §2
To further verify the functional role of GnRH2 and GnRH3 on feeding regulation, time- and dose-dependent tests were performed to detect the effect of GnRH2 and GnRH3 on anorectic gene (POMCb, CART2, UTS1, NMBa, NMBb, and LEPR) mRNA expression. In the time-course test, the grass carp pituitary cells were incubated by GnRH2 or GnRH3 (1 μM) for 3, 6, 12, and 24 h, respectively. […] In the dose-dependent test, grass carp pituitary cells were incubated by the continuous gradient dilution of GnRH2 or GnRH3 (0.1–1,000 nM) for 24 h.
Figure 9 Regulation of feeding hormone gene mRNA expression by GnRH2 and GnRH3 in grass carp pituitary cells. (A) Time-course experiment of grass carp GnRH2 (1 μM) and GnRH3 (1 μM) on POMCb, CART2, UTS1, NMBa, NMBb, and LEPR mRNA expression in grass carp pituitary cells. (B) Dose dependence of a 24-h treatment with increasing levels of GnRH2 and GnRH3 (0.1–1,000 nM) on POMCb, CART2, UTS1, NMBa, NMBb, and LEPR mRNA expression in grass carp pituitary cells. […]

[3] = test system: zebrafish; settings: intracerebroventricular (ICV) injection, ref [38]; cited from earlier work
[4] = test system: goldfish; settings: intracerebroventricular (ICV) injection, ref [39]; cited from earlier work
[5] = test system: goldfish; design: method as in PMID 7507838, PMID 8045371; settings: ref [34], [35], cited from earlier work
[6] = test system: pituitary; settings: teleost; ref [5], [10]; cited from earlier work
From the text: Subsequently, GnRH2 had been firstly found in chicken so that this variant was also named as chicken GnRH (cGnRH) ([3]). In addition, the third GnRH variant (GnRH3) was an ubiquitous and unique subtype existing in fish ([3]), which was primitively discovered in salmon so that it was named as salmon GnRH (sGnRH) ([4]). Multiple GnRH variants (two or three forms) are present in all teleosts ([5]), but the receptor selectivity a ...

[7] = 1 μM, time-dependent, Figure 5A

NC(=O)CNC(=O)[C@@H]1CCCN1C(=O)[C@H](Cc1ccc(O)cc1)NC(=O)[C@H](Cc1c[nH]c2ccccc12)NC(=O)CNC(=O)[C@H](Cc1c[nH]cn1)NC(=O)[C@H](CO)NC(=O)[C@H](Cc1c[nH]c2ccccc12)NC(=O)[C@H](Cc1c[nH]cn1)NC(=O)[C@@H]1CCC(=O)N1 [GnRH2] ([pGlu]HWSHGWYPG-NH2)
effect on DRD2 mRNA expression, time course [1, 7]: inhibit
effect on GtHα, LHβ, FSHβ, INHBa, and SgII mRNA expression, time course [1, 7]: significantly induce
effect on DRD2 mRNA expression, dose test ([1]; 0.1–1,000 nM (all treated doses), 24 h, Figure 5B): significantly inhibit
effect on GtHα, LHβ, FSHβ, INHBa, and SgII mRNA expression, dose dependence ([1]; 0.1–1,000 nM, 24 h, dose-dependent, Figure 5B): significantly induce
effect on POMCb, CART2, UTS1, NMBa, NMBb, and LEPR mRNA expression, time course ([2]; 1 μM, 3, 6, 12, and 24 h, time-dependent, Figure 9A): significantly induce
effect on POMCb, CART2, UTS1, NMBa, NMBb, and LEPR mRNA expression, dose dependence ([2]; 0.1–1,000 nM, 24 h, dose-dependent, Figure 9B): significantly induce
effect on food intake, zebrafish [3]: significantly decrease food intake
effect on food intake, goldfish [4]: significantly decrease food intake
LH secretion compared to GnRH3 ([5]; sexually mature, pre-spawning fish): more robust LH secretion
LH-releasing activity ([5]; sexually regressed animals): no effect
effect on LH and FSH secretion in the pituitary [6]: could stimulate
